The values below come from a melting point compilation (Tetko et al.; mined from patent text by program, amines drawn as free bases though some values may be those of a salt).

SMILES strings stand for the structures.

For the molecule `CC(Cc1ccc(-c2ncc(NC(=O)C(F)(F)F)o2)cc1)N1CC(c2cccc(Cl)c2)OC1=O` (configuration not stated), the melting point (in general, the temperature of the solid-liquid transition) lay within 163 to 164 °C.

`O=C(Nc1ccccc1)c1cc([N+](=O)[O-])ccc1Cl` displayed a melting point of 155 to 156 °C.

In turn, `OCc1ccc(-c2cncc(OC3SCC(O)C(O)C3O)c2)cc1` (configuration not stated) showed a melting point of 153 °C.

Turning to `Cc1ccc(S(=O)(=O)N(C)c2cccc(-c3ccnc4c(C(=O)c5ccccc5)cnn34)c2)cc1`, the melting point was in the range of 170 to 171 °C.

Regarding `Cc1ccc(NC(=O)N(C)Cc2cccc3c2C(=O)N(C2CCC(=O)NC2=O)C3=O)cc1Cl` (configuration not stated), the melting point was in the range of 193 to 195 °C.

On to `COc1ccc2c(c1)ncc1c(=O)n(-c3ccccc3)oc12`, for which the melting point was determined as 170 °C.

`O=C(CCl)NNC1=Nc2ccc(Cl)cc2N(c2ccccc2)C(=O)C1` yielded a melting point of 210 to 215 °C.

On to `CO[C@@H]1CN(CCCNc2nccc(=O)[nH]2)CC[C@@H]1NC(=O)c1cc(Cl)c(N)c2c1OC(C)(C)C2`, for which the melting point was found to be 164 °C.

In the case of `COCCOC(=O)C1=C(C)NC(C)=C(C(=O)OCCN2CCN(C(c3ccccc3)c3ccccc3)CC2)C1c1cccc([N+](=O)[O-])c1` (configuration not stated), the melting point lay in the range of 62 to 66 °C.

On to `CC(C)(C)c1ccc(NC(=O)N2CCCC3(CC2)CC(c2ccccc2)=NO3)cc1` (configuration not stated), for which the melting point was in the range of 137 to 142 °C.

The molecule `O=[N+]([O-])c1cc(S(=O)c2ccc(-c3ccc(Br)cc3)cc2)ccc1Cl` (configuration not stated) registered a melting point of 173 to 175 °C.

Turning to `COc1ccc(S(=O)(=O)N(CCCO)c2ccccc2/C=C/c2ccncc2)cc1`, the melting point lay in the range of 164 to 167 °C.

Molecule `COC(=O)c1cc(C)cc(-c2cccs2)c1NS(=O)(=O)c1ccc(OC)cc1` had a melting point of 141 °C.

Regarding `CNC(NCCNCc1ccc(CN(C(C)C)C(C)C)o1)=C(C#N)C#N`, the melting point was in the range of 79 to 80 °C.

Turning to `O=C1CC(=O)N(c2ccccc2)c2cc(Cl)ccc2N1Cc1ccccc1`, the melting point is 173 to 175 °C.

Take `COc1cc(OCc2ccccn2)ccc1/C=C/c1cc(/C=C/c2c[nH]c3ncccc23)n[nH]1`: the melting point fell in the range of 219 to 223 °C.

`O=C(NCCO)c1ccc(NS(=O)(=O)c2ccc(F)cc2)cn1` registered a melting point of 144 to 146 °C.

Consider `O=C(N[C@H]1CC[C@H](CCN2CCN(c3nccc4c3CCO4)CC2)CC1)c1ccc(C(F)(F)F)cc1`, for which the melting point turned out to be 227 °C.

As for `Cn1cc(/C=C/c2ccc3ccccc3n2)cc1C(=O)O`, the melting point is more than 230 °C.

As for `COc1ccccc1N1CCN(CC=CCN)CC1`, the melting point was in the range of 63 to 67 °C.

In turn, `CC1CNC(=Nc2ccccc2N2CCOCC2)N1` (configuration not stated) had a melting point of 173 to 174 °C.

The molecule `CC=CCN(CCC12CC3CC(CC(C3)C1)C2)C(=O)NCCCc1ccncc1` came in with a melting point of 89.5 to 93.5 °C.

Take `COc1ccc(N2CCOCC2)c2sc(NC(=O)N3CC4CC[C@@](C)(C3)C4(C)C)nc12`: the melting point was in the range of 185 to 189 °C.

For `Nc1cnccc1-c1ccc(Cl)cc1`, the melting point lay within 144 to 146 °C.

As for `CCOC(=O)C(=O)Nc1cc(C#N)cc([N+](=O)[O-])c1`, the melting point lay in the range of 114 to 116 °C.

In the case of `CCc1c(Oc2ncc(C(F)(F)F)cc2Cl)nn(C(=O)NC)c1C`, the melting point lay within 84 to 86 °C.

In the case of `CCCC(=O)N(Cc1cccc2c1S(=O)(=O)N=C2C1=C(O)C(C(C)(C)C)N(Cc2ccc(F)c(C)c2)C1=O)S(C)(=O)=O` (configuration not stated), the melting point is 226 °C.

`O=C1CCSC(=S)N1c1ccccn1`: the melting point turned out to be 157 °C.

With `CCOCc1nc2c(N)nc3ccccc3c2n1CC1CC(C)=NO1` (configuration not stated), the melting point is 204 to 205 °C.

Consider `O=C(O)Cc1c(C(=O)O)c2cc(Oc3cccc(Cl)c3)ccc2n1-c1ccc(OC(F)(F)F)cc1`, for which the melting point fell in the range of 190 to 195 °C.

The molecule `COc1cccc(C(=O)CC(=O)c2cc(NC(C)=O)ccc2O)c1` came in with a melting point of 72 to 73 °C.

As for `Cc1cc(COc2ccc(C(N)=O)cc2)c2c(N)c(C(N)=O)sc2n1`, the melting point was more than 250 °C.

Molecule `O=C1c2ccccc2-c2[nH]c(=O)c(-c3ccccc3)nc21` registered a melting point of more than 300 °C.

Molecule `CCc1cccc2nc(C(=O)OC)c(C(=O)OC)c(O)c12` registered a melting point of 111 to 114 °C.

For the molecule `COc1ccc2ccccc2c1CCN`, the melting point is more than 180 °C.

`NC(=O)C(F)(F)C(O)(Cn1cncn1)c1ccccc1` (configuration not stated) showed a melting point of 160 to 161 °C.

As to `O=C(O)C(=O)NC1CCCCCCC1`, the melting point was in the range of 115 to 116 °C.

In turn, `CC(=O)OCC1OC(n2cc(C)c(=S)[nH]c2=S)CC1F` (configuration not stated) displayed a melting point of 113 to 114 °C.

In turn, `O=C1CCCN1C(=O)NCCS(=O)c1ccccn1` (configuration not stated) returned a melting point of 120 °C.

In turn, `O=C(OI(OC(=O)C(F)(F)F)C(F)(F)C(F)(F)C(F)(F)C(F)(F)C(F)(F)C(F)(F)C(F)(F)C(F)(F)F)C(F)(F)F` had a melting point of 70 to 74 °C.

On to `CCN1CCCC1CNC(=O)c1cc(S(N)(=O)=O)cc2c1OC(C)C2` (configuration not stated), for which the melting point fell in the range of 164 to 165 °C.

The molecule `CC(=O)S[C@@H](CC1CCCCC1)C(=O)O` returned a melting point of 159 to 161 °C.

In turn, `COc1ccc(CC(=O)NC(NC(=NC#N)c2cccc3ncccc23)C(C)(C)C)cc1OC` (configuration not stated) showed a melting point of 203 to 205 °C.

Molecule `CC1=C(C(=O)OCCN2CCCCC2)C(c2ccccc2C(F)(F)F)c2c(ccnc2OC(C)C)N1` (configuration not stated) showed a melting point of 118 to 120 °C.

The molecule `CCOC(=O)c1c(COC(C)=O)cccc1S(N)(=O)=O` gave a melting point of 98 to 100 °C.

`CN(C)c1nc(O)cc(O)n1` returned a melting point of more than 300 °C.

The molecule `COc1ccc2ccccc2c1C1C(CC(=O)O)CC(=O)N1c1ccccc1` (configuration not stated) showed a melting point of 198 to 203 °C.

For `CCCOc1ccc(S(C)(=O)=O)cc1-c1nc2c(CC)nn(C[C@@H]3CCCN3C)c2c(=O)[nH]1`, the melting point lay in the range of 211 to 215 °C.

`Cc1nc(N)nc(N)c1-c1cc(Cl)cc(Cl)c1Cl` yielded a melting point of 236 to 238 °C.

`COc1c(C)cc2c(c1C)C(C)(C)CN2C(=O)C(C)(C)C`: the melting point was 103 to 104 °C.

For the molecule `O=C(Nc1ccc(C(F)(F)F)cn1)Oc1ccccc1`, the melting point was found to be 203 °C.

Turning to `CN1CCN(C2=C3N=c4cc(Cl)ccc4=C3Oc3ccccc3N2C)CC1`, the melting point was in the range of 187 to 188 °C.

`O=C(O)CCCCCCCCN1NNN=C1C(c1ccccc1)c1ccccc1`: the melting point fell in the range of 68 to 70 °C.

For the molecule `Cc1c(NC(=O)c2ccc(-c3ccc(F)cc3)cc2F)ccc2cc(CN3CCCCCC3)cnc12`, the melting point is 159 to 160 °C.

The molecule `Nc1cc(O)cc(O)c1` registered a melting point of 150 °C.

`NS(=O)(=O)c1ccc(NC(=O)c2ccccc2SSc2ccccc2C(=O)O)cc1` showed a melting point of 276 to 278 °C.

`CSc1ncncc1C1c2cc(NS(=O)(=O)c3ccccc3)ccc2CC1(C)C` (configuration not stated) had a melting point of 174 to 176 °C.

With `CC1OCCn2c1nc(C(=O)O)c(OCc1ccccc1)c2=O` (configuration not stated), the melting point lay in the range of 167 to 168 °C.

Molecule `CC(C)c1ccc2ncn(/C=C/C(=O)O)c(=O)c2c1` gave a melting point of 242 to 243 °C.

`COCOc1cc(F)ccc1-c1cc(-c2cccc(NC(=O)CN(C)C)c2)c(C#N)c(NC(=O)c2ccco2)n1` displayed a melting point of 168 to 169 °C.

In turn, `CC1CC(c2cc3c(C(F)(F)F)cccc3s2)CCN1` (configuration not stated) had a melting point of 106 to 108 °C.

Take `O=C(CF)c1ccc(F)cc1F`: the melting point is 57 to 58 °C.
